Ten compounds from ChEMBL document CHEMBL1135193, “N-[2-(Indan-1-yl)-3-mercapto-propionyl] amino acids as highly potent inhibitors of the three vasopeptidases (NEP, ACE, ECE): In vitro and In vivo activities” (Bioorg Med Chem Lett, 2002) can be followed below.

pKi: −log10 of the molar value.

The first assay addresses T1, Neprilysin (Oryctolagus cuniculus, UniProt P08049).
T1 sequence (P08049 whole entry): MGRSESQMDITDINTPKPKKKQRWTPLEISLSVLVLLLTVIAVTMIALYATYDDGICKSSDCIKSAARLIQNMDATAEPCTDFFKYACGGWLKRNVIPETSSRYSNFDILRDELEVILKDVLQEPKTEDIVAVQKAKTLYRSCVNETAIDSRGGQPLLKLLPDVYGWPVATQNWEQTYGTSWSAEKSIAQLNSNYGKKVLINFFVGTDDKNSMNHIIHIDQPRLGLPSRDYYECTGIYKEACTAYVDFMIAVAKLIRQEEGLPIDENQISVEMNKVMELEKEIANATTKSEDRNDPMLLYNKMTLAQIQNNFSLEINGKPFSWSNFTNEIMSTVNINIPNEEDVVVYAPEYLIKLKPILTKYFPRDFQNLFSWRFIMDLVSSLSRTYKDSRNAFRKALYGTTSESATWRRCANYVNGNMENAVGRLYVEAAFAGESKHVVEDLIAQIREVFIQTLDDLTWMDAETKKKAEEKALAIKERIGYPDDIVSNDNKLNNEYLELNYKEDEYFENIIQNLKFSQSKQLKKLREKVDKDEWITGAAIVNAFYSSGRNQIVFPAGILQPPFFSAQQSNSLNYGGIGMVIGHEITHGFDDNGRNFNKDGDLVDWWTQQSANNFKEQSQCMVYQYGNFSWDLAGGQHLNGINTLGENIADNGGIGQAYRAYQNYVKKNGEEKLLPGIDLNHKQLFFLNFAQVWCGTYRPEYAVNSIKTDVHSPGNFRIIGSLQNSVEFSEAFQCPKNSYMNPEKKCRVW
In words: In vitro inhibition of Neutral endopeptidase.
`CN(C)c1ccc2c(c1)CCC2C(CS)C(=O)NC(Cc1c[nH]c2ccccc12)C(=O)O` (stereo not given) gave a negative-log Ki (pKi) of 7.82.

Compound `COc1ccc2c(c1)CC[C@H]2[C@H](CS)C(=O)N[C@@H](Cc1c[nH]c2ccccc12)C(=O)O` showed a pKi of 7.52. Compared with the last compound, the pKi is 0.30 log units lower.

Consider `O=C(O)C(Cc1c[nH]c2ccccc12)NC(=O)C(CS)C1CCc2cc(-c3ccccc3)ccc21` (stereo not given), for which the negative-log Ki (pKi) was 7.85.

`COc1ccc2c(c1)CC[C@H]2[C@@H](CS)C(=O)N[C@@H](Cc1c[nH]c2ccccc12)C(=O)O` had a negative logarithm of the Ki (pKi) of 7.82.

Take `COc1ccc2c(c1)C(C(CS)C(=O)NC(Cc1c[nH]c3ccccc13)C(=O)O)CC2` (stereo not given): the pKi was 7.96.

In turn, `O=C(O)C(Cc1c[nH]c2ccccc12)NC(=O)C(CS)C1CCc2cc(Br)ccc21` (stereo not given) had a pKi of 8.30. Against the preceding compound, the pKi is 0.34 log units higher.

Turning to `N#Cc1ccc2c(c1)CCC2C(CS)C(=O)NC(Cc1c[nH]c2ccccc12)C(=O)O` (stereo not given), the pKi is 7.96.

Compound `COc1ccc2c(c1)CC[C@@H]2[C@@H](CS)C(=O)N[C@@H](Cc1c[nH]c2ccccc12)C(=O)O` had a pKi of 8.89.

Turning to `COc1cc2c(cc1OC)C(C(CS)C(=O)NC(Cc1c[nH]c3ccccc13)C(=O)O)CC2` (stereo not given), the negative logarithm of the Ki (pKi) was 7.11. This pKi lies 1.78 log units lower than the previous one.

For `O=C(O)[C@H](Cc1c[nH]c2ccccc12)NC(=O)[C@@H](CS)[C@@H]1CCc2cc(Br)ccc21`, the negative-log Ki (pKi) was 8.03. This pKi is 0.92 log units higher than that of the compound before.

The target of the next assay is T2, Angiotensin-converting enzyme (Rattus norvegicus, UniProt P47820).
T2 sequence (P47820 whole entry): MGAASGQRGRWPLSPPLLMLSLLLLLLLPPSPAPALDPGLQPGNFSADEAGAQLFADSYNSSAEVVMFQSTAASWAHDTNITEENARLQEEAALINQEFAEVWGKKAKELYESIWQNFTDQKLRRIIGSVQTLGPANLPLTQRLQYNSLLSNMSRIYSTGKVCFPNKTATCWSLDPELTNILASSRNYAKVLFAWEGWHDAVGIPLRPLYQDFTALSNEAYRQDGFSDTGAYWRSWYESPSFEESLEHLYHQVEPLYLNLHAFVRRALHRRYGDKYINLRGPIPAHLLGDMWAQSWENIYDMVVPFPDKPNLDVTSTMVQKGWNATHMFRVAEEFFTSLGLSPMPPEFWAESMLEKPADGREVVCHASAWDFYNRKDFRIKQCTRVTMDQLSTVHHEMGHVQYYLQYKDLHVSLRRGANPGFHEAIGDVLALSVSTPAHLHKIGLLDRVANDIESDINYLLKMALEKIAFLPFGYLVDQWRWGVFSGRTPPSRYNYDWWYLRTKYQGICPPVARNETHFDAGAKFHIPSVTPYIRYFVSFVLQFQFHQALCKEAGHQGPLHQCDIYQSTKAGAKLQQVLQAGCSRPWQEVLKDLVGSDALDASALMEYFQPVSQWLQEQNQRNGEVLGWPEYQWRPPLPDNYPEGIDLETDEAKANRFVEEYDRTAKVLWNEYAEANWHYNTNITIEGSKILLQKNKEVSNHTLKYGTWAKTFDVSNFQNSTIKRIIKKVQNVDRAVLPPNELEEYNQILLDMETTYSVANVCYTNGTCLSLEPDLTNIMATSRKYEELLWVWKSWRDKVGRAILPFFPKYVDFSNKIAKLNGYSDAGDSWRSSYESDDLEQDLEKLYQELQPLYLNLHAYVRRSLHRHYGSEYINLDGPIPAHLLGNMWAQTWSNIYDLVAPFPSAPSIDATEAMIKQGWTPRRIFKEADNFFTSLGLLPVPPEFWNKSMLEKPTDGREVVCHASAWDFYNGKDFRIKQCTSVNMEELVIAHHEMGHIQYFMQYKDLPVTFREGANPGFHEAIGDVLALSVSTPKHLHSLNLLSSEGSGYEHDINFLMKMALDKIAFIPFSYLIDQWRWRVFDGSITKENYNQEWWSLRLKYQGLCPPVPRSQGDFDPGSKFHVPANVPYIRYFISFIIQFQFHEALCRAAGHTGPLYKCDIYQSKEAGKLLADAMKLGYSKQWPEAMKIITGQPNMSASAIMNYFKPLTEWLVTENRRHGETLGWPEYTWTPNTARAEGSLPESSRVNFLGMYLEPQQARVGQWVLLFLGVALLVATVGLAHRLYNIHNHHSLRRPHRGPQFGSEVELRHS
The assay is described as follows: In vitro inhibition of Angiotensin I converting enzyme.
For `CN(C)c1ccc2c(c1)CCC2C(CS)C(=O)NC(Cc1c[nH]c2ccccc12)C(=O)O` (stereo not given), the negative logarithm of the Ki (pKi) was 7.36.

In turn, `COc1ccc2c(c1)CC[C@H]2[C@H](CS)C(=O)N[C@@H](Cc1c[nH]c2ccccc12)C(=O)O` gave a negative-log Ki (pKi) of 7.15. Against the preceding compound, the pKi is 0.21 log units lower.

In turn, `O=C(O)C(Cc1c[nH]c2ccccc12)NC(=O)C(CS)C1CCc2cc(-c3ccccc3)ccc21` (stereo not given) showed a pKi of 7.57.

Turning to `COc1ccc2c(c1)CC[C@H]2[C@@H](CS)C(=O)N[C@@H](Cc1c[nH]c2ccccc12)C(=O)O`, the negative logarithm of the Ki (pKi) was 7.52.

`COc1ccc2c(c1)C(C(CS)C(=O)NC(Cc1c[nH]c3ccccc13)C(=O)O)CC2` (stereo not given) showed a negative-log Ki (pKi) of 7.46. The pKi values of the last two compounds are within 0.2 log units of each other.

The compound `O=C(O)C(Cc1c[nH]c2ccccc12)NC(=O)C(CS)C1CCc2cc(Br)ccc21` (stereo not given) had a pKi of 7.92.

`N#Cc1ccc2c(c1)CCC2C(CS)C(=O)NC(Cc1c[nH]c2ccccc12)C(=O)O` (stereo not given) gave a pKi of 8.52.

On to `COc1ccc2c(c1)CC[C@@H]2[C@@H](CS)C(=O)N[C@@H](Cc1c[nH]c2ccccc12)C(=O)O`, for which the pKi was 7.62.

Turning to `COc1cc2c(cc1OC)C(C(CS)C(=O)NC(Cc1c[nH]c3ccccc13)C(=O)O)CC2` (stereo not given), the negative-log Ki (pKi) was 7.11.

For the compound `O=C(O)[C@H](Cc1c[nH]c2ccccc12)NC(=O)[C@@H](CS)[C@@H]1CCc2cc(Br)ccc21`, the pKi is 7.24.

A further assay addresses T3, Endothelin-converting enzyme 1 (Homo sapiens, UniProt P42892).
T3 sequence (P42892 whole entry): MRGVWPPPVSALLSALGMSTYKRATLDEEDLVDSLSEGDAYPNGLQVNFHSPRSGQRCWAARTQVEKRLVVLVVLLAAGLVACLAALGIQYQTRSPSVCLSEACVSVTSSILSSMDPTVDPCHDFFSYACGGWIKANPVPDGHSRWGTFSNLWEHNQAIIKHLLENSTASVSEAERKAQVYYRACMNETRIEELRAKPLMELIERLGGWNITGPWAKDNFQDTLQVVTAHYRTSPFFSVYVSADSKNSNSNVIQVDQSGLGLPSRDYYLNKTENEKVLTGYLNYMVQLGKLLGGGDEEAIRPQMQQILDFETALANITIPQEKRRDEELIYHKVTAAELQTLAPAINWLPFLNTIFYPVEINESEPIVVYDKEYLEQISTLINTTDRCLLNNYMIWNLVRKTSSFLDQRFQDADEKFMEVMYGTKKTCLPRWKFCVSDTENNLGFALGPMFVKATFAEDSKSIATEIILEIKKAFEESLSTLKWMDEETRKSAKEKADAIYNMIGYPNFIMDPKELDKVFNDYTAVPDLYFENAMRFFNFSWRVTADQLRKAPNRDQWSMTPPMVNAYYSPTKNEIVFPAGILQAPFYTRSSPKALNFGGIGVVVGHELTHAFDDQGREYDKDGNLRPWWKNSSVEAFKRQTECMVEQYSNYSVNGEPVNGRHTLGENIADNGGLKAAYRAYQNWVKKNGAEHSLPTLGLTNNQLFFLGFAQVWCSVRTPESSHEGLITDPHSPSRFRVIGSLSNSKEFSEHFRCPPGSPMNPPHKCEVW
In words: In vitro inhibition of endothelin converting enzyme.
Regarding `CN(C)c1ccc2c(c1)CCC2C(CS)C(=O)NC(Cc1c[nH]c2ccccc12)C(=O)O` (stereo not given), the pKi was 6.43.

As to `COc1ccc2c(c1)CC[C@H]2[C@H](CS)C(=O)N[C@@H](Cc1c[nH]c2ccccc12)C(=O)O`, the negative logarithm of the Ki (pKi) is 5.84.

`O=C(O)C(Cc1c[nH]c2ccccc12)NC(=O)C(CS)C1CCc2cc(-c3ccccc3)ccc21` (stereo not given) gave a negative logarithm of the Ki (pKi) of 6.85.

`COc1ccc2c(c1)CC[C@H]2[C@@H](CS)C(=O)N[C@@H](Cc1c[nH]c2ccccc12)C(=O)O` showed a negative-log Ki (pKi) of 6.74.

In turn, `COc1ccc2c(c1)C(C(CS)C(=O)NC(Cc1c[nH]c3ccccc13)C(=O)O)CC2` (stereo not given) gave a negative logarithm of the Ki (pKi) of 7.10.

Consider `O=C(O)C(Cc1c[nH]c2ccccc12)NC(=O)C(CS)C1CCc2cc(Br)ccc21` (stereo not given), for which the negative logarithm of the Ki (pKi) was 7.51.

For `N#Cc1ccc2c(c1)CCC2C(CS)C(=O)NC(Cc1c[nH]c2ccccc12)C(=O)O` (stereo not given), the pKi is 6.68. Compared with the last compound, the pKi is 0.83 log units lower.

With `COc1ccc2c(c1)CC[C@@H]2[C@@H](CS)C(=O)N[C@@H](Cc1c[nH]c2ccccc12)C(=O)O`, the pKi is 8.00.

In turn, `COc1cc2c(cc1OC)C(C(CS)C(=O)NC(Cc1c[nH]c3ccccc13)C(=O)O)CC2` (stereo not given) had a pKi of 6.25.

As to `O=C(O)[C@H](Cc1c[nH]c2ccccc12)NC(=O)[C@@H](CS)[C@@H]1CCc2cc(Br)ccc21`, the pKi is 6.96.

Usually pKi stands for the Ki on a negative log10 scale, so that one unit is a factor of ten. A high value points to a small Ki.
